Tested on: Madin-Darby canine kidney (MDCK) epithelial cells
Experiment: 3D cell chirality (rotation direction) of cells in bilayer MATRIGEL substrate
Assay type: cell-based
Conditions: MDCK cells in 3D substrate, FIG. 5
Protocol: The cell line used was Madin-Darby canine kidney (MDCK) epithelial cells. The 3D substrate culture system included a base layer was composed of 100% MATRIGEL®. The base layer was seeded with a single cell suspension of MDCK epithelial cells. After cell attachments to the base layer, a top layer was generated by overlaying culture with 2% MATRIGEL®.
Self-organization of the epithelial cells during microtissue development was observed using phase contrast imaging and confocal microscopy. The cells were stained with DAPI (4′,6-diamidino-2-phenylindole), Phalloidin, and ZO-1 antibody.
Time-lapse images were collected for at least 2 hours at intervals of 1 minute over a period of 6 days. Videos were processed in ImageJ and analyzed for quantification of collective rotational direction. Direction of rotation was categorized into clockwise (CW), counterclockwise (CCW), complex rotation, and no rotation. Phase-contrast images of microtissue development from a single cell embedded within the multilayer MATRIGEL® system over time.
Latrunculin A was used to study the role of actin function in left right asymmetry. Latrunculin A is a drug which inhibits actin polymerization. […] These studies are consistent with 2D studies.

C/C1=C/C(=O)O[C@@H]2C[C@@H](CC[C@H](C)/C=C\C=C\CC1)O[C@@](O)([C@@H]1CSC(=O)N1)C2 [Latrunculin A]
effect on cell chirality (rotation direction) (base layer 100% MATRIGEL, top layer 2% MATRIGEL): reversal of chirality | concentration dependence of chirality effect (higher concentrations of Latrunculin A): increasing clockwise chirality
